Assay results as given in patent publication CN109456950A, “一种环糊精葡萄糖基转移酶的突变体及其应用” (priority 2018, dated 2019).

How the values were obtained:
Format in all cases: biochemical
[1] = molecular target: T1, Bacillus circulans cyclodextrin glycosyltransferase (CGTase) variant M234I, Met234Ile of parent SEQ ID NO.2 [来源于环状芽孢杆菌(B.circulans)的环糊精葡萄糖基转移酶, M234I] (Niallia circulans, UniProt P43379, M261I); assay: Acceptor affinity for maltose (Km) in the disproportionation reaction, M234I; details: M234I vs wild type, EPS as donor, pH 5.5, 50℃, affinity expressed by Km
T1 construct: made in house; host or cells: E. coli BL21(DE3), pET-20b(+), fermentation supernatant (crude enzyme)
T1 sequence (P43379 28-713 M261I): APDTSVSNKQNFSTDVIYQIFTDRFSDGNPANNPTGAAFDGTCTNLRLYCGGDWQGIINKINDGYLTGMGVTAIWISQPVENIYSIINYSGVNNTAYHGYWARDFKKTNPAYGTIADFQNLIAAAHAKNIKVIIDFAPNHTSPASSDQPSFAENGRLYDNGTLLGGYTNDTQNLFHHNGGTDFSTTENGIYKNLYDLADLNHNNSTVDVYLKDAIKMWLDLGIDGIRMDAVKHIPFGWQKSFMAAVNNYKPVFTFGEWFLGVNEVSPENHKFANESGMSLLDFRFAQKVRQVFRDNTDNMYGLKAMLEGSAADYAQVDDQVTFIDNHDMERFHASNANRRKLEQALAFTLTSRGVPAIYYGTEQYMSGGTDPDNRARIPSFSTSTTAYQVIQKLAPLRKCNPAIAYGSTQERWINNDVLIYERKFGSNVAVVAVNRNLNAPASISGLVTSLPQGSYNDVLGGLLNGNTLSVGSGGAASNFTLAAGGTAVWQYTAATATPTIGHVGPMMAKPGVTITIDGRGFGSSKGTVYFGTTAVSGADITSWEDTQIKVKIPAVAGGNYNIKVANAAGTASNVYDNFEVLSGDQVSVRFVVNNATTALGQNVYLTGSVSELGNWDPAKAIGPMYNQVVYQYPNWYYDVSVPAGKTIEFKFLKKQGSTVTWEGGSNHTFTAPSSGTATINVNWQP

[2] = molecular target: Bacillus circulans cyclodextrin glycosyltransferase (CGTase) variant M234L, Met234Leu of parent SEQ ID NO.2 [来源于环状芽孢杆菌(B.circulans)的环糊精葡萄糖基转移酶, M234L] (Niallia circulans, UniProt P43379, M261L); assay: Acceptor affinity for maltose (Km) in the disproportionation reaction, M234L; details: M234L vs wild type, EPS as donor, pH 5.5, 50℃, affinity expressed by Km
Bacillus circulans cyclodextrin glycosyltransferase (CGTase) variant M234L, Met234Leu of parent SEQ ID NO.2 [来源于环状芽孢杆菌(B.circulans)的环糊精葡萄糖基转移酶, M234L], sequence (P43379 whole entry M261L): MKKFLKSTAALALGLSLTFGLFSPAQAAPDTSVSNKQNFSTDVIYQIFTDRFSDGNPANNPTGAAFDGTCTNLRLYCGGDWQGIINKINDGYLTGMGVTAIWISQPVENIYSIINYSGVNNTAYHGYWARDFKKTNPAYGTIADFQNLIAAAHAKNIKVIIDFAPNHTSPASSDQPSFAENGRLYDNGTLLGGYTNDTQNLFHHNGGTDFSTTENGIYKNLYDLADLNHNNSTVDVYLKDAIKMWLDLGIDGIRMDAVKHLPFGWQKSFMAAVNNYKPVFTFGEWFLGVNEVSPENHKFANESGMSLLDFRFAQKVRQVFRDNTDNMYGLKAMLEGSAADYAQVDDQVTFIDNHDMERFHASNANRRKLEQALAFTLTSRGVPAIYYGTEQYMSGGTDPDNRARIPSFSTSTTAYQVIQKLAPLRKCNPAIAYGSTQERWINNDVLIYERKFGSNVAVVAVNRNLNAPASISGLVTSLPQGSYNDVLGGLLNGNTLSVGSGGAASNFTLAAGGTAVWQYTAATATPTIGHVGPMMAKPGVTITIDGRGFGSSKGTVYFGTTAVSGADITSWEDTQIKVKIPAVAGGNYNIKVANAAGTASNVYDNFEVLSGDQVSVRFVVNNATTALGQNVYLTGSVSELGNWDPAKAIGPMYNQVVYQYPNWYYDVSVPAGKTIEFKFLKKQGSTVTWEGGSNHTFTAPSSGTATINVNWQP

[3] = molecular target: Bacillus circulans cyclodextrin glycosyltransferase (CGTase) variant M234A, Met234Ala of parent SEQ ID NO.2 [来源于环状芽孢杆菌(B.circulans)的环糊精葡萄糖基转移酶, M234A] (Niallia circulans, UniProt P43379, M261A); assay: Acceptor affinity for maltose (Km) in the disproportionation reaction, M234A; details: M234A vs wild type, EPS as donor, pH 5.5, 50℃, affinity expressed by Km
Bacillus circulans cyclodextrin glycosyltransferase (CGTase) variant M234A, Met234Ala of parent SEQ ID NO.2 [来源于环状芽孢杆菌(B.circulans)的环糊精葡萄糖基转移酶, M234A], sequence (P43379 whole entry M261A): as the sequence (P43379 whole entry M261L) above, with L261A counted along it

[4] = molecular target: T2, Bacillus circulans cyclodextrin glycosyltransferase (CGTase) variant M234V, Met234Val of parent SEQ ID NO.2 [来源于环状芽孢杆菌(B.circulans)的环糊精葡萄糖基转移酶, M234V] (Niallia circulans, UniProt P43379, M261V); assay: Acceptor affinity for maltose (Km) in the disproportionation reaction, M234V; details: M234V vs wild type, EPS as donor, pH 5.5, 50℃, affinity expressed by Km
T2 construct: made in house; host or cells: E. coli BL21(DE3), pET-20b(+), fermentation supernatant (crude enzyme)
T2 sequence (P43379 28-713 M261V): as the sequence (P43379 28-713 M261I) above, with I234V counted along it

`OCC1OC(OC2C(CO)OC(O)C(O)C2O)C(O)C(O)C1O` (stereo not shown) [麦芽糖] was tested, and the “increase in acceptor affinity for maltose compared with wild type” value (“increase in acceptor affinity” for short) [1] was 45.6%, the “increase in acceptor affinity” value [2] was 30.3% and the “increase in acceptor affinity” value [3] was 34.7%. The “increase in acceptor affinity” value [4] was 36.9%.
